Assay results: patent US20230149374A1, “METHODS AND COMPOSITIONS FOR TREATING ATHEROSCLEROSIS” (Sanford Burnham Prebys Medical Discovery Institute, priority 2021, published 2023)
“Also recorded” adds a separate entry of the source.

Tests used:
ApoE-deficient mice [1] = experiment: In vivo aortic calcification imaging, 18F-NaF μPET / μCT; design: species or system mouse; conditions: ApoE-deficient mice on HFD, 30 mg/kg/day in food from 10 to 25 weeks of age; control 6 out of 11
From the text: Four cohorts of mice were used in these studies (FIGS. 8A and 9A). Cohorts 1 and 2 were devoted to the in vivo and ex vivo characterization of TNAP-associated plaque calcification. 6-week-old ApoE-deficient male mice were received at the animal facility and placed in conventional cages with 5 mice per cage. Mice were maintained on a 12-hrs light-dark cycle (7:00 am-7:00 pm) and were supplied with food and water ad libitum. From 10 weeks of age, they were fed ad libitum with a high fat diet (HFD, D12108C, Research Diets, New Brunswick, USA) containing 40% fat (kcal) and 1.25% cholesterol (weight). In cohort 1, 8 mice were sacrificed every 2 weeks between weeks 17 to 31, for histological and molecular analyses. Total body weight was measured weekly after starting the HFD. The sacrifice was done after anesthesia with isoflurane and intracardiac blood puncture by CO2 inhalation. Tissues were harvested as described below. The abdominal aorta was used for quantitative polymerase chain reaction (PCR) analyses. […] Plaque calcification was analyzed at 25 weeks, and possible side effects of TNAP inhibition were explored in mice aged 31 weeks. […]
Mice were placed into a chamber connected to an isoflurane anesthesia unit. […] Images were analyzed using Inveon Research workplace (Siemens). The presence of atherosclerotic plaques was evaluated both in CT and PET images. […]

ApoE-deficient mice [2] = experiment: Plaque histology: osteosense staining of calcifications, oil red O staining; assay type: in vivo, mouse; conditions: ApoE-deficient mice on HFD, 30 mg/kg/day from 10 to 25 weeks
From the text: Four cohorts of mice were used in these studies (FIGS. 8A and 9A). Cohorts 1 and 2 were devoted to the in vivo and ex vivo characterization of TNAP-associated plaque calcification. 6-week-old ApoE-deficient male mice were received at the animal facility and placed in conventional cages with 5 mice per cage. Mice were maintained on a 12-hrs light-dark cycle (7:00 am-7:00 pm) and were supplied with food and water ad libitum. From 10 weeks of age, they were fed ad libitum with a high fat diet (HFD, D12108C, Research Diets, New Brunswick, USA) containing 40% fat (kcal) and 1.25% cholesterol (weight). In cohort 1, 8 mice were sacrificed every 2 weeks between weeks 17 to 31, for histological and molecular analyses. Total body weight was measured weekly after starting the HFD. The sacrifice was done after anesthesia with isoflurane and intracardiac blood puncture by CO2 inhalation. Tissues were harvested as described below. The abdominal aorta was used for quantitative polymerase chain reaction (PCR) analyses. Mice from cohort 2 were used to analyze aorta calcification with ^18F—NaF μPET and μCT and to compare the in vivo data with the ex vivo results obtained in cohort 1. Animals were transferred from the animal facility to the Cermep imaging platform. Cohorts 3 and 4 were used to determine in vivo and ex vivo the impact of TNAP inhibition on the vasculature, liver, bones, and kidneys. According to the results obtained in cohorts 1 and 2, TNAP inhibitor SBI-425 (30 mg/kg/day, formulated as a food admixture in the HFD) was administered in a preventive manner from 10 weeks of age. Treatment was stopped at 25 weeks or 31 weeks of age. Plaque calcification was analyzed at 25 weeks, and possible side effects of TNAP inhibition were explored in mice aged 31 weeks. Mice in cohort 3 (2 groups of 13 mice) were used for ex vivo analysis, and mice in cohort 4 (2 groups of 12 mice) for in vivo imaging and ex vivo analyses.
After euthanasia, the heart and vasculature were perfused with sterile NaCl 0.9%. The aortic root and the aortic arch, with the major arteries that stem from them (brachiocephalic, left common carotid and left subclavian), were dissected and frozen in optimal cutting temperature medium (OCT, Thermo Scientific) and stored at −80° C. before serial cryo-sectioning. The aortic root, aortic arch and carotid were dissected under a microscope, frozen in optimal cutting medium (OCT, Thermo Scientific) and stored at −80° C. before serial cryo-sectioning. […] Calcification was imaged by near infrared fluorescence (NIRF) with the calcium tracer osteosense (OS) (PerkinElmer, ex/em 650/680 nm). […] Quantification was performed by computer image analysis using Image J software (NIH, Bethesda, Md.) by averaging of measurements from 2 sections of 15 μm apart using ImageJ software. […]

## COc1ccc(Cl)cc1S(=O)(=O)Nc1cncc(C(N)=O)c1 [SBI-425]
ApoE-deficient mice [1]
  mice having calcifications, in vivo 18F-NaF μPET and μCT: 0 out of 12
ApoE-deficient mice [2]; OS staining, control 13 out of 13
  mice that formed calcifications, by histology: 9 out of 13
ApoE-deficient mice [2]; OS staining, vs control
  number of calcifications per mice: lower
ApoE-deficient mice [2]; oil red O, vs control
  plaque lipids (lipid surface): less lipids
ApoE-deficient mice [2]; oil red O, vs control, 30 mg/kg/day
  plaque size (plaque surface): smaller; also recorded: reduced
